Values of other authors in patent US20030100464A1, “Dishwashing compositions containing alkylbenzenesulfonate surfactants” (priority 2001, published 2003).

B1: D96L: D96L lipolytic enzyme variant of the native lipase derived from Humicola lanuginosa (protein, UniProt O59952 23-291, looked up, variant D96L)
Lipase: EVSQDLFNQFNLFAQYSAAAYCGKNNDAPAGTNITCTGNACPEVEKADATFLYSFEDSGVGDVTGFLALDNTNKLIVLSFRGSRSIENWIGNLNFLLKEINDICSGCRGHDGFTSSWRSVADTLRQKVEDAVREHPDYRVVFTGHSLGGALATVAGADLRGNGYDIDVFSYGAPRVGNRAFAEFLTVQTGGTLYRITHTNDIVPRLPPREFGYSHSSPEYWIKSGTLVPVTRNDIVKIEGIDATGGNNQPNIPDIPAHLWYFGLIGTCL

Legend:
[1] = all-aqueous solution at 25° C., ionic strength 0.1 to 0.5 M
[2] = enzymes compared at 0.075 to 2.5 mg protein per liter

Molecule	pK1 [1]	pK2 [1]	improvement of lard stain removal efficiency, factor over the wild-type lipase [2]
CCC(N)CCN (stereo not drawn) [1,3 pentane diamine]	10.5	8.9	–
NCCCN [1,3 propane diamine]	10.5	8.8	–
NCCCCCCN [1,6 hexane diamine]	11	10	–
CC(CN)CCCN (stereo not drawn) [2-methyl 1,5 pentane diamine]	11.2	10.0	–
B1	–	–	4.4
